Laboratory results published in patent US12551500B2, “C6′-substituted locked nucleic acid-modified cap analog and use thereof” (Hangzhou Tianlong Pharmaceutical Co., Ltd., priority 2024, dated 2026).

What was measured:
T7 RNA polymerase [1] = target: T1, T7 RNA polymerase (Escherichia phage T7, UniProt P00573); assay: In vitro transcription yield of mRNA with cap analog (co-transcriptional capping); format: biochemical; settings: for Yield per unit template: in vitro transcription, 1 μg DNA template, 20 μL system, 37° C. 2 hours; for transcription yield higher than that of compound 14: relative to compound 14
Experimental: (1) Capping synthesis using cap analogs
The plasmid was first linearized with plasmid linearizing enzyme, and then the linearized plasmid was purified.
(2) In vitro transcription and synthesis of mRNA
(§1) YK-CAP-001 to 006 and compound 14 in Table 1 were respectively used as cap analogs.
(§2) During the experiment, the volume of materials required for the system was first calculated, and then sample addition was conducted. The system was first added with sterile enzyme-free water, followed by the sequential addition of 10× buffer, NTPs, and cap analogs, mixed well, and gently centrifuged. Nuclease inhibitors, inorganic pyrophosphatase, T7 RNA polymerase, and linearized DNA templates were then added thereto. The system was mixed well, gently centrifuged, and incubated at 37° C. After 2 hours of incubation, the system was added with 1 U of DNase I and incubated at 37° C. for another 30 minutes. The mRNA precipitate was then washed with 75% ethanol, and after the ethanol was briefly evaporated to dryness, the mRNA was redissolved in sterile enzyme-free water.
(3) The transcription product was purified, and the in vitro transcription yield of mRNA was recorded.

BALB/C mice = assay: In vivo imaging of protein expressed by LNP-carrying Fluc-mRNA in mice; settings: for Average radiation intensity: female BALB/C mice; for average radiation intensity, times that of N-7413: ratio to N-7413; for average radiation intensity, times that of YK-CAP-001: ratio to YK-CAP-001; for average radiation intensity, times that of YK-CAP-002: ratio to YK-CAP-002; for average radiation intensity, times that of compound 14: ratio to compound 14; for average radiation intensity, times that of m6A: ratio to m6A
Experimental: The LNP preparation containing […] of Fluc-mRNAs transcribed using the cap analogs YK-CAP-001 to 006 in the present disclosure and the cap analogs N-7413, compound 14, and m6A in the prior art was intramuscularly injected into female BALB/C mice aged 4 to 6 weeks and weighing 17 to 19 g. At specific time points after administration (6 hours, 12 hours, 24 hours, 48 hours, 96 hours, and 168 hours), the mice were intraperitoneally injected with fluorescence imaging substrate. The mice were then allowed to move freely for 5 minutes, followed by detection of the average radiation intensity (corresponding to the amount of protein expression) of the protein expressed by LNP-carrying mRNA in the mice using an IVIS Spectrum small-animal in vivo imaging system.

T7 RNA polymerase [2] = target: T1, T7 RNA polymerase; assay: Capping rate of in vitro transcribed mRNA by LC-MS; format: biochemical; settings: for capping rate higher than that of compound 14: difference to compound 14
Experimental: as §1, §2
(4) The obtained mRNA was subjected to an annealing reaction with a probe.
The annealing reaction was performed in a PCR instrument: 95° C. for 5 minutes; 65° C. for 2 minutes; 55° C. for 2 minutes; 40° C. for 2 minutes; 22° C. for 2 minutes.
(5) Magnetic bead pretreatment and probe binding: 100 μL of magnetic beads was placed on a magnetic frame for pretreatment. The magnetic bead solution was added with 120 μL of sample and incubated at room temperature for 30 minutes with slow mixing.
(6) mRNA splicing and obtaining the 5′ single-strand sequence bound to the probe
The mixture was added with 20 μL of RNase H (5 U/μL) and incubated at 37° C. for 3 hours with mixing every half hour. After incubation, the magnetic beads were washed and then added with 100 μL of 75% methanol heated to 80° C. The mixture was heated to 80° C. on a heating plate, held for 3 minutes, then placed on a magnetic frame to aspirate the supernatant, and dried at room temperature for 45 minutes to a volume of 10 μL using a centrifugal evaporator. The sample was then resuspended in 50 μL of 100 μM EDTA/1% MeOH and ready for LC-MS analysis to determine the capping of RNA in the transcription reaction. Since there is a significant difference in molecular weight between capped and uncapped bases, the capping rate of mRNA transcription initiated by different cap analogs can be determined based on the difference in molecular mass.

[3] = 6 h after intramuscular injection of LNP Fluc-mRNA
[4] = 12 h after intramuscular injection of LNP Fluc-mRNA
[5] = 24 h after intramuscular injection of LNP Fluc-mRNA
[6] = 48 h after intramuscular injection of LNP Fluc-mRNA
[7] = 96 h after intramuscular injection of LNP Fluc-mRNA
[8] = 168 h after intramuscular injection of LNP Fluc-mRNA

T1 sequence (P00573 whole entry): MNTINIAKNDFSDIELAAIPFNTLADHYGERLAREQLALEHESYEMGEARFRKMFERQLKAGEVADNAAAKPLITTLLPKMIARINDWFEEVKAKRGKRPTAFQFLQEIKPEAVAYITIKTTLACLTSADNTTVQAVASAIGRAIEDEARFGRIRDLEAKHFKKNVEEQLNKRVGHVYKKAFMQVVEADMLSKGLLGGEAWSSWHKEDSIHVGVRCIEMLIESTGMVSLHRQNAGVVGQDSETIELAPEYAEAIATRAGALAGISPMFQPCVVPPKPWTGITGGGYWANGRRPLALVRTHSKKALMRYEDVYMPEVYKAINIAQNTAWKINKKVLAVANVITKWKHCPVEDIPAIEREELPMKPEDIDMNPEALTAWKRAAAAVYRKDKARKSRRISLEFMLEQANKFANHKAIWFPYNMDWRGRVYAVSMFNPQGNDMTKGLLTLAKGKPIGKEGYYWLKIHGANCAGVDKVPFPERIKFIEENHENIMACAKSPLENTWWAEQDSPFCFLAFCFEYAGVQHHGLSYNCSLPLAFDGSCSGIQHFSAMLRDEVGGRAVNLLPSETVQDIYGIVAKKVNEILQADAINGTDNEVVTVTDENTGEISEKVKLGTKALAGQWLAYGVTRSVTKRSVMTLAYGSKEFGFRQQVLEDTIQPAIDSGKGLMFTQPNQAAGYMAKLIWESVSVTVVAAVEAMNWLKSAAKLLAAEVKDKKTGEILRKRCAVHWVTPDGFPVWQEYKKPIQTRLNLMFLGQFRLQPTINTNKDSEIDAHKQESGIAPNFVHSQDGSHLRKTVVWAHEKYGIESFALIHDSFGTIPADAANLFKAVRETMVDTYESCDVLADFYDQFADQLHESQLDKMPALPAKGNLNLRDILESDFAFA

SMILES	Yield per unit template (T7 RNA polymerase [1]) [µg]	transcription yield higher than that of compound 14 (T7 RNA polymerase [1]) [%]	Average radiation intensity (BALB/C mice; [3]) [p/s/cm^2/sr]	Average radiation intensity (BALB/C mice; [4]) [p/s/cm^2/sr]	Average radiation intensity (BALB/C mice; [5]) [p/s/cm^2/sr]	Average radiation intensity (BALB/C mice; [6]) [p/s/cm^2/sr]	Average radiation intensity (BALB/C mice; [7]) [p/s/cm^2/sr]	Average radiation intensity (BALB/C mice; [8]) [p/s/cm^2/sr]	average radiation intensity, times that of N-7413 (BALB/C mice; at 6 hours) [times]	average radiation intensity, times that of YK-CAP-001 (BALB/C mice; at 6 hours) [times]	average radiation intensity, times that of YK-CAP-002 (BALB/C mice; at 6 hours) [times]	average radiation intensity, times that of compound 14 (BALB/C mice; at 6 hours) [times]	average radiation intensity, times that of m6A (BALB/C mice; at 6 hours) [times]	average radiation intensity, times that of N-7413 (BALB/C mice; at 96 hours) [times]	average radiation intensity, times that of YK-CAP-001 (BALB/C mice; at 96 hours) [times]	average radiation intensity, times that of YK-CAP-002 (BALB/C mice; at 96 hours) [times]	average radiation intensity, times that of compound 14 (BALB/C mice; at 96 hours) [times]	average radiation intensity, times that of m6A (BALB/C mice; at 96 hours) [times]	capping rate higher than that of compound 14 (T7 RNA polymerase [2]) [%]	other results
COC1C(OP(=O)([O-])OC[C@H]2O[C@@H](n3cnc4c(=O)[nH]c(N)nc43)C(O)C2O)[C@@H](COP(=O)(O)OP(=O)(O)OP(=O)(O)OC[C@]23O[C@@H]([n+]4cn(C)c5c(=O)[nH]c(N)nc54)C(O[C@H]2CC(=O)N(C)C)C3O)O[C@H]1n1cnc2c(N)ncnc21 (stereo partly drawn) [YK-CAP-003]	151.0	24.9	3212750	2454750	1053625	700200	57893	19016	1.2	1.9	2.2	1.2	1.8	0.8	1.3	2.8	1.0	1.7	17.3	
COC1C(OP(=O)([O-])OC[C@H]2O[C@@H](n3cnc4c(=O)[nH]c(N)nc43)C(O)C2O)[C@@H](COP(=O)(O)OP(=O)(O)OP(=O)(O)OC[C@]23O[C@@H]([n+]4cn(C)c5c(=O)[nH]c(N)nc54)C(O[C@H]2CC(F)F)C3O)O[C@H]1n1cnc2c(N)ncnc21 (stereo partly drawn) [YK-CAP-004]	163.2	35.0	3856100	2836750	1159325	903025	114933	19785	1.4	2.2	2.6	1.5	2.1	1.7	2.6	5.5	2.0	3.4	18.8	transcription yield higher than that of YK-CAP-001 (T7 RNA polymerase [1]; relative to YK-CAP-001): 82.8%; transcription yield higher than that of YK-CAP-002 (T7 RNA polymerase [1]; relative to YK-CAP-002): 58.3%; capping rate higher than that of YK-CAP-001 (T7 RNA polymerase [2]; difference to YK-CAP-001): 23.2%; capping rate higher than that of YK-CAP-002 (T7 RNA polymerase [2]; difference to YK-CAP-002): 26.1%; Capping rate (T7 RNA polymerase [2]; mRNA transcribed with the cap analog, LC-MS): 96.3%
COC1C(OP(=O)([O-])OC[C@H]2O[C@@H](n3cnc4c(=O)[nH]c(N)nc43)C(O)C2O)[C@@H](COP(=O)(O)OP(=O)(O)OP(=O)(O)OC[C@]23O[C@@H]([n+]4cn(C)c5c(=O)[nH]c(N)nc54)C(O[C@H]2CCS(C)(=O)=O)C3O)O[C@H]1n1cnc2c(N)ncnc21 (stereo partly drawn) [YK-CAP-005]	152.6	26.2	3171000	2497200	998650	834250	110595	17807	1.1	1.8	2.2	1.2	1.8	1.6	2.5	5.3	1.9	3.3	17.7	
COC1C(OP(=O)([O-])OC[C@H]2O[C@@H](n3cnc4c(=O)[nH]c(N)nc43)C(O)C2O)[C@@H](COP(=O)(O)OP(=O)(O)OP(=O)(O)OC[C@]23O[C@@H]([n+]4cn(C)c5c(=O)[nH]c(N)nc54)C(O[C@H]2CCS(=O)(=O)N(C)C)C3O)O[C@H]1n1cnc2c(N)ncnc21 (stereo partly drawn) [YK-CAP-006]	153.1	26.6	3303900	2067750	976550	798075	75840	15660	1.2	1.9	2.3	1.3	1.8	1.1	1.7	3.6	1.3	2.3	17.6	
